Results: patent publication US12398111B2, “Triazine compounds and pharmaceutical use thereof” (Japan Tobacco Inc., priority 2014, dated 2025)

The compounds below were run against T1, human mPGES-1 (Homo sapiens, UniProt O14684) (assay: Evaluation of human mPGES-1 enzyme inhibitory activity (PGE2 measured by HTRF, microsome fraction of CHO-S cells expressing human mPGES-1)). Conditions: IC50 value; microsome fraction of CHO-S cells expressing human mPGES-1, PGE2 by HTRF.
T1 construct: made in house; host or cells: FreeStyle CHO-S cells (Chinese hamster ovary), transient transfection with pcDNA3.1(+)/human mPGES-1; microsome fraction used
T1 sequence (O14684 1-152): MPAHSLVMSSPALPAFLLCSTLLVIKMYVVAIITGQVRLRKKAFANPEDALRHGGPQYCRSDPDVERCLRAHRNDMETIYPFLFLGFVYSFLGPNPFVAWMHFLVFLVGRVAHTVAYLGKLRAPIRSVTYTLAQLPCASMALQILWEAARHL
Format: biochemical
Method: That is, the amount of PGE2 produced by human mPGES-1 in the presence of a test article was measured by the HTRF (homogeneous time resolved fluorescence) method, based on which the human mPGES-1 enzyme inhibitory activity of the test article was determined.
1) Preparation of Human mPGES-1 Expressing Cell Microsome Fraction
A DNA fragment containing human mPGES-1, which is added with a BamHI recognition cleavage sequence immediately before the translation initiation codon and an EcoRI recognition cleavage sequence immediately after the translation termination codon was amplified by the PCR (Polymerase Chain Reaction) method using a human mPGES-1 expression plasmid DNA (pME-18S/iPGES-1) prepared in-house as a template. The purified DNA fragment was digested with BamHI and EcoRI, and ligated to pcDNA3.1(+) (Invitrogen, model number V790-20), similarly digested with BamHI and EcoRI, by using a DNA Ligation kit ver.2.1 (Takara Bio, model number 6022). The human mPGES-1 expression plasmid DNA was isolated from Escherichia coli DH5a (TOYOBO, model number DNA-903) transformed with the obtained ligation product. The base sequence of human mPGES-1 cloned to a vector was determined by the Dye Terminator method by using BigDye Terminator v3.1 Cycle Sequencing Kit (Applied Biosystems, #4337455).
Human mPGES-1 expression plasmid DNA was transfected into Chinese hamster ovary-derived cells (FreeStyle CHO-S Cell, Invitrogen, #R800-07) by using a transgene reagent (FreeStyle MAX Reagent (Invitrogen, #16447-100)), and cultured with shaking (8% CO2, 37° C.) in a medium containing 8 mmol/L L-glutamine (GIBCO FreeStyle CHO Expression Medium, Invitrogen, #12651-022) for 48 hr.
The CHO-S cells were suspended in Homogenate Buffer (100 mmol/L potassium phosphate (pH 7.4), 250 mmol/L Sucrose, 100 mmol/L EDTA, complete EDTA free (Roche, #1873580)). Using an ultrasonic disruptor UD-201 (Tomy Seiko), the suspended cells were disrupted at output:3, duty cycle:50 for 30 seconds. The precipitate was removed by centrifugation (1,000×g, 5 min, 4° C.), is and the supernatant was centrifuged (5,000×g, 10 min, 4° C.). The supernatant was further centrifuged (105,000×g, 60 min, 4° C.). The obtained precipitate was suspended in Resuspension Buffer (100 mmol/L potassium phosphate (pH 7.4), 250 mmol/L sucrose, 100 mmol/L EDTA, 10% glycerol) to give a microsome fraction.
The protein concentration of the microsome fraction was measured by the Bradford method (Protein Assay Kit, Bio-Rad). The microsome fraction was rapidly frozen in liquid nitrogen and preserved at −80° C. Human mPGES-1 in the microsome fraction was detected by Western Blot using rabbit anti-mPGES-1 polyclonal antibody (ThermoFisher Scientific, #PA1-10264).
2) Evaluation of Human mPGES-1 Enzyme Inhibitory Activity
A test article solution diluted with 0.1 mol/L potassium phosphate, pH 7.4 (hereinafter to be referred to as KPB) or DMSO (Nacalai Tesque, #13407-45) was added at 5 μL/well to 96 well V-bottom plate (Corning, #3363). The final DMSO concentration during the reaction was set to 2% (v/v). Furthermore, a microsome fraction of CHO-S cells expressing human mPGES-1, which was diluted with reduced GSH (12.5 mmol/L KPB solution, SIGMA, #G6529-25G) such that the protein concentration was 5 μg/mL, was added at 20 μL/well. The amount of the microsome fraction used is the amount of microsome fraction within a range where the amount of PGE2 produced under the reaction conditions shown below and the amount of microsome fraction used show linearity. To the blank was added reduced GSH (12.5 mmol/L KPB solution) at 20 μL/well.

SMILES	IC50 [nM]
CO[C@](C)(C(=O)NC(C)c1ccc(Cl)c(-c2nc(O)nc(-c3ccc(F)c(C)c3)n2)c1)C(F)(F)F (single isomer, unassigned) [Example 1-188]	1.6
CO[C@](C)(C(=O)NC(C)c1ccc(Cl)c(-c2nc(O)nc(-c3ccc(F)c(C)c3)n2)c1)C(F)(F)F (single isomer, unassigned) [Example 1-189]	1100
CO[C@](C)(C(=O)NC(C)c1ccc(Cl)c(-c2nc(O)nc(-c3ccc(OCC(C)(C)C)cc3)n2)c1)C(F)(F)F (single isomer, unassigned) [Example 1-200]	10
CO[C@](C)(C(=O)NC(C)c1ccc(Cl)c(-c2nc(O)nc(-c3ccc(OCC(C)(C)C)cc3)n2)c1)C(F)(F)F (single isomer, unassigned) [Example 1-201]	306
CC1CCC(CO)(C(=O)NCc2ccc(Cl)c(-c3nc(O)nc(-c4ccccc4)n3)c2)CC1 (single isomer, unassigned) [Example 1-256]	98
CC1CCC2(CC1)CN(Cc1ccc(Cl)c(-c3nc(O)nc(-c4ccccc4)n3)c1)C2=O (single isomer, unassigned) [Example 1-257]	17
CC(C)(C)C1CCC2(CC1)CN(Cc1ccc(Cl)c(-c3nc(O)nc(-c4ccccc4)n3)c1)C2=O (single isomer, unassigned) [Example 1-266, 7-tert-butyl-2-[4-chloro-3-(4-hydroxy-6-phenyl-1,3,5-triazin-2-yl)benzyl]-2-azaspiro[3.5]nonan-1-one]	11
COC1CCC2(CC1)CN(Cc1ccc(Cl)c(-c3nc(O)nc(-c4ccccc4)n3)c1)C2=O (single isomer, unassigned) [Example 1-267]	150
Cc1ccc(F)cc1-c1nc(O)nc(-c2ccc(C(F)(F)F)cc2)n1 [Example 1-1]	813
Cc1ccc(C)c(-c2nc(O)nc(-c3ccc(C(F)(F)F)cc3)n2)c1 [Example 1-2]	138
Cc1ccc(Cl)cc1-c1nc(O)nc(-c2ccc(C(F)(F)F)cc2)n1 [Example 1-3]	164
Cc1ccc(Cl)c(-c2nc(O)nc(-c3ccc(C(F)(F)F)cc3)n2)c1 [Example 1-4]	25
Oc1nc(-c2ccc(C(F)(F)F)cc2)nc(-c2cc(OC(F)(F)F)ccc2Cl)n1 [Example 1-5]	672
COc1ccc(Cl)c(-c2nc(O)nc(-c3ccc(C(F)(F)F)cc3)n2)c1 [Example 1-6]	163
Oc1ccc(Cl)c(-c2nc(O)nc(-c3ccc(C(F)(F)F)cc3)n2)c1 [Example 1-7]	652
O=C(O)c1ccc(Cl)c(-c2nc(O)nc(-c3ccc(C(F)(F)F)cc3)n2)c1 [Example 1-8]	27000
Cc1ccc(C(F)(F)F)cc1-c1nc(O)nc(-c2ccc(C(F)(F)F)cc2)n1 [Example 1-9]	601
OCc1ccc(Cl)c(-c2nc(O)nc(-c3ccc(C(F)(F)F)cc3)n2)c1 [Example 1-12]	15
CC(=O)c1ccc(Cl)c(-c2nc(O)nc(-c3ccc(C(F)(F)F)cc3)n2)c1 [Example 1-13]	397
CCc1ccc(C)c(-c2nc(O)nc(-c3ccc(C(F)(F)F)cc3)n2)c1 [Example 1-14]	1410
CC(C)(C)OC(=O)NCc1ccc(Cl)c(-c2nc(O)nc(-c3ccc(C(F)(F)F)cc3)n2)c1 [Example 1-15]	7.4
CC(=O)NCc1ccc(Cl)c(-c2nc(O)nc(-c3ccc(C(F)(F)F)cc3)n2)c1 [Example 1-16]	10
NCc1ccc(Cl)c(-c2nc(O)nc(-c3ccc(C(F)(F)F)cc3)n2)c1 [Example 1-17]	735
CC(O)c1ccc(Cl)c(-c2nc(O)nc(-c3ccc(C(F)(F)F)cc3)n2)c1 (stereo not drawn) [Example 1-18]	114
COCc1ccc(Cl)c(-c2nc(O)nc(-c3ccc(C(F)(F)F)cc3)n2)c1 [Example 1-19]	411

SMILES	IC50 [nM]
CS(=O)(=O)NCc1ccc(Cl)c(-c2nc(O)nc(-c3ccc(C(F)(F)F)cc3)n2)c1 [Example 1-20]	1.6
CC(=O)N(C)Cc1ccc(Cl)c(-c2nc(O)nc(-c3ccc(C(F)(F)F)cc3)n2)c1 [Example 1-21]	988
COC(=O)NCc1ccc(Cl)c(-c2nc(O)nc(-c3ccc(C(F)(F)F)cc3)n2)c1 [Example 1-22]	2.7
O=C(O)Cc1ccc(Cl)c(-c2nc(O)nc(-c3ccc(C(F)(F)F)cc3)n2)c1 [Example 1-23]	134
CC(C)(C)C(=O)NCc1ccc(Cl)c(-c2nc(O)nc(-c3ccc(C(F)(F)F)cc3)n2)c1 [Example 1-24]	0.6
CC(=O)OCc1ccc(Cl)c(-c2nc(O)nc(-c3ccc(C(F)(F)F)cc3)n2)c1 [Example 1-25]	108
CNC(=O)Cc1ccc(Cl)c(-c2nc(O)nc(-c3ccc(C(F)(F)F)cc3)n2)c1 [Example 1-26]	18
CCC(=O)NCc1ccc(Cl)c(-c2nc(O)nc(-c3ccc(C(F)(F)F)cc3)n2)c1 [Example 1-27]	1
CC(C)C(=O)NCc1ccc(Cl)c(-c2nc(O)nc(-c3ccc(C(F)(F)F)cc3)n2)c1 [Example 1-28]	0.6
O=C(NCc1ccc(Cl)c(-c2nc(O)nc(-c3ccc(C(F)(F)F)cc3)n2)c1)C1CCCCC1 [Example 1-29]	1.1
O=C(NCc1ccc(Cl)c(-c2nc(O)nc(-c3ccc(C(F)(F)F)cc3)n2)c1)C1CCCC1 [Example 1-30]	0.6
CCS(=O)(=O)NCc1ccc(Cl)c(-c2nc(O)nc(-c3ccc(C(F)(F)F)cc3)n2)c1 [Example 1-31]	1
CC(C)(C)S(=O)(=O)NCc1ccc(Cl)c(-c2nc(O)nc(-c3ccc(C(F)(F)F)cc3)n2)c1 [Example 1-32]	0.7
CC(C)S(=O)(=O)NCc1ccc(Cl)c(-c2nc(O)nc(-c3ccc(C(F)(F)F)cc3)n2)c1 [Example 1-33]	0.8
CN(C)C(=O)NCc1ccc(Cl)c(-c2nc(O)nc(-c3ccc(C(F)(F)F)cc3)n2)c1 [Example 1-34]	5.9
CNC(=O)NCc1ccc(Cl)c(-c2nc(O)nc(-c3ccc(C(F)(F)F)cc3)n2)c1 [Example 1-35]	22
CCCC(=O)NCc1ccc(Cl)c(-c2nc(O)nc(-c3ccc(C(F)(F)F)cc3)n2)c1 [Example 1-36]	0.7
CC(C)CC(=O)NCc1ccc(Cl)c(-c2nc(O)nc(-c3ccc(C(F)(F)F)cc3)n2)c1 [Example 1-37]	0.8
CCOC(=O)NCc1ccc(Cl)c(-c2nc(O)nc(-c3ccc(C(F)(F)F)cc3)n2)c1 [Example 1-38]	1.5
CC(C)OC(=O)NCc1ccc(Cl)c(-c2nc(O)nc(-c3ccc(C(F)(F)F)cc3)n2)c1 [Example 1-39]	1.9
CN(C)C(=O)Cc1ccc(Cl)c(-c2nc(O)nc(-c3ccc(C(F)(F)F)cc3)n2)c1 [Example 1-40]	2230
CC(C)(C)NC(=O)Cc1ccc(Cl)c(-c2nc(O)nc(-c3ccc(C(F)(F)F)cc3)n2)c1 [Example 1-41]	2.3
O=S(=O)(NCc1ccc(Cl)c(-c2nc(O)nc(-c3ccc(C(F)(F)F)cc3)n2)c1)C1CCCC1 [Example 1-42]	1
CC(C)(C)C(=O)NCc1ccc(Cl)c(-c2nc(O)nc(-c3ccccc3)n2)c1 [Example 1-43]	2

Same assay, conditions: at 30 μM test article

SMILES	inhibition at 30 µM [%]
Cc1ccc(C(=O)O)cc1-c1nc(O)nc(-c2ccc(C(F)(F)F)cc2)n1 [Example 1-10]	5
Cc1ccc(C(N)=O)cc1-c1nc(O)nc(-c2ccc(C(F)(F)F)cc2)n1 [Example 1-11]	42
